Results taken from article PMC2861356 (Clinical cancer research : an official journal of the …, 2009).
Read-outs that look alike come from different tables or passages of the source. Values belong to the compound of their own block, whether it stands above or below them.

What was measured:
GIST = GIST after imatinib; cited from earlier work
[1] = test system: imatinib-resistant gastrointestinal stromal tumors (GIST); test: Tumor response; format: in vivo, human
[2] = test system: patients with advanced imatinib-resistant gastrointestinal stromal tumors (GIST)
clinical [3] = details: human, serum, oral
[4] = Nilotinib serum pharmacokinetics at steady-state
[5] = test system: surgically incurable GIST; details: cited from earlier work
clinical [6] = details: human, plasma, oral; for Cmax: Imatinib Cmax, mean ± SD; for Tmax: Imatinib tmax, median (range)
[7] = Cohort 2 (n=6), imatinib 400 mg bid with nilotinib 200 mg qd, Day 8
[8] = 400 mg, Cohort 3 (n=7), imatinib 400 mg bid alone, Day -1
[9] = 400 mg, Cohort 3 (n=7), imatinib 400 mg bid with nilotinib 400 mg qd, Day 8

Compound: CCN(CC)CCNC(=O)c1c(C)[nH]c(/C=C2\C(=O)Nc3ccc(F)cc32)c1C [Sunitinib]
- Duration of benefit of second-line therapy (GIST): approximately 9 months

Compound: Cc1cn(-c2cc(NC(=O)c3ccc(C)c(Nc4nccc(-c5cccnc5)n4)c3)cc(C(F)(F)F)c2)cn1 [Nilotinib]
- Best overall response: Complete response ([1]; Nilotinib 400 mg bid n=18): 0 n (%)
- Best overall response: Partial response ([1]; Nilotinib 400 mg bid n=18): 1 (6) n (%)
- Best overall response: Progressive disease ([1]; Nilotinib 400 mg bid n=18): 2 (11) n (%)
- Best overall response: Stable disease ([1]; Nilotinib 400 mg bid n=18): 13 (72) n (%)
- Best overall response: Unknown (could not be classified) ([1]; Nilotinib 400 mg bid n=18): 1 (6) n (%)
- Progression-free survival, Kaplan-Meier rate at 4 months ([1]; Nilotinib 400 mg bid n=18): 59%
- Progression-free survival, Kaplan-Meier rate at 6 months ([1]; Nilotinib 400 mg bid n=18): 47%
- Progression-free survival, median ([1]; Nilotinib 400 mg bid n=18): 168 days
- Progression-free survival, range ([1]; Nilotinib 400 mg bid n=18): 1 to 393 days
- Patients with stable disease ([1]; all cohorts): Thirty-eight
- Discontinuation of study for disease progression ([1]; all cohorts, n=32): 60%
- Progression-free survival, range ([1]; all patients): 1 to 393 days
- Median progression-free survival ([1]; entire group, all patients): 134 days
- Stable disease lasting >6 months ([1]; single-agent nilotinib group, 5 patients): 28%
- Stable disease lasting >4 months ([1]; single-agent nilotinib group, 9 patients): 50%
- Discontinuation of study for death ([2]; all cohorts, n=2): 4%
- Abdominal pain, overall frequency of AE ([2]; human, in vivo): 36%
- Discontinuation of study for AEs ([2]; human, in vivo): 6%
- Fatigue, overall frequency of AE ([2]; human, in vivo): 38%
- Grade 3 elevations of AST or ALT ([2]; human, in vivo): < 2%
- Grade 3 or 4 laboratory abnormality: hyperbilirubinemia ([2]; human, in vivo): 8%
- Grade 3 or 4 toxicities, patients overall ([2]; human, in vivo): 49%
- Nausea, overall frequency of AE ([2]; human, in vivo): 36%
- Post-baseline QTcF interval >480 msec ([2]; human, in vivo): 13%
- QTcF >500 msec ([2]; human, in vivo): no QTcF >500 msec was reported
- Rash, overall frequency of AE ([2]; human, in vivo): 40%
- Severe AEs (grade 3 or 4): abdominal pain ([2]; human, in vivo): 13%
- Dose deemed appropriate for Phase II studies ([2]; human, in vivo, 28 days): 400 mg bid
- Dose-limiting toxicity: grade 3 hyperbilirubinemia, frequency ([2]; human, in vivo, 28 days): 6%
- Thrombocytopenia episodes ([2]; in vivo): no episodes of thrombocytopenia
- AUC(0-t) (clinical [3]): 13600 ± 6620 ng·h/mL
- Cmax (clinical [3]; 400 mg bid): 1640 ± 828 ng/mL
- Tmax (clinical [3]; 400 mg bid): 2.8 h
- Slope of Cavg versus total nilotinib daily dose (power model) ([4]; combination cohorts): 0.946
- Slope of Cmax versus total nilotinib daily dose (power model) ([4]; combination cohorts): 0.881
- Nilotinib AUC0-t higher than in single-agent cohort ([4]; nilotinib 400 mg bid combination cohorts, second value): 18%
- Nilotinib oral clearance, mean CL/F across the combination groups ([4]; nilotinib with imatinib, 4 combination cohorts): 19.1 to 25.6 L/h

- Imatinib Cavg, mean ± SD (Cohort 2 (n=6), imatinib 400 mg bid alone, Day -1): 2381 ± 1181 ng/mL
- Imatinib Cavg, mean ± SD [7]: 2768 ± 1039 ng/mL
- Imatinib Cavg, mean ± SD (Cohort 3 (n=7), imatinib 400 mg bid alone, Day -1): 3594 ± 2195 ng/mL
- Imatinib Cavg, mean ± SD (Cohort 3 (n=7), imatinib 400 mg bid with nilotinib 400 mg qd, Day 8): 3735 ± 1212 ng/mL
- Imatinib Cavg, mean ± SD (Cohort 4 (n=5), imatinib 400 mg bid alone, Day -1): 3556 ± 1523 ng/mL
- Imatinib Cavg, mean ± SD (Cohort 4 (n=5), imatinib 400 mg bid with nilotinib 400 mg bid, Day 8): 4285 ± 2325 ng/mL
- Cmax (clinical [6]; 400 mg, Cohort 2 (n=6), imatinib 400 mg bid alone, Day -1): 2770 ± 1140 ng/mL
- Cmax (clinical [6]; [8]): 4020 ± 2170 ng/mL
- Cmax (clinical [6]; [9]): 4200 ± 1120 ng/mL
- Cmax (clinical [6]; 400 mg, Cohort 4 (n=5), imatinib 400 mg bid alone, Day -1): 4170 ± 1760 ng/mL
- Cmax (clinical [6]; 400 mg, Cohort 4 (n=5), imatinib 400 mg bid with nilotinib 400 mg bid, Day 8): 5070 ± 2760 ng/mL
- Tmax (clinical [6]; [8]): 4.8 h
- Tmax (clinical [6]; [9]): 2.4 h
- Cmax (clinical [6]; [7]): 3370 ± 1120 ng/mL
- Tmax (clinical [6]; [7]): 2.9 h
Compound: Cc1ccc(NC(=O)c2ccc(CN3CCN(C)CC3)cc2)cc1Nc1nccc(-c2cccnc2)n1 [Imatinib]
- Patients with primary resistance within the first 6 months of therapy ([5]; estimated): 5-14%
- Median time of therapy until secondary resistance ([5]; most patients): 2 years
- Median survival ([5]; surgically incurable GIST): ~5 years
- Tumor control rates ([5]; surgically incurable GIST): > 80%
